Patent publication US20240042065A1, “THERANOSTIC AGENTS” (priority 2022, published 2024)

Experiment: NMR relaxivity studies (R1 relaxivity)
Format: physicochemical
Conditions: Gd(III) complexes of DTPA analogues
Description: The potential of L1 and L2 to be used in magnetic resonance imaging/Optical Imaging (MRI/OI) was evaluated by measuring their (a) thermodynamic stability by stability constants with potentiometric titrations; (b) R1 relaxivities by NMR relaxivity studies and (c) spectrophotometric (luminescence) investigations.
The diagnostic moiety of the theranostic agent of the present invention enhances MR images when the patient is subjected to the magnetic field of the MR scanning machine by altering the T1 relaxation of local water protons. The paramagnetic relaxation of water protons arises as a result of dipole-dipole interactions between the proton nuclear spins and that of the oscillating magnetic field of MR machine caused by the interaction with the unpaired electron spins of paramagnetic metal ion in the complex, under pulse of radio frequency. The overall paramagnetic water proton relaxation rate enhancement (i.e. proton relaxivity) is governed by two factors, namely inner sphere and outer sphere contributions. […] This profile measures molecular dynamics taking place within the said complex understudy in a quantitative manner in the time scales of milliseconds to nanoseconds. […]

Compound: O=C(O)CN(CCN(CCN(CC(=O)O)CC(=O)O)CCN1C(=O)c2cccc3cccc(c23)C1=O)CC(=O)O [Type A]
- relaxivity (in words): high relaxivity
